{"source": "patent US7067112B2", "about": "“Cephaibols: novel antiparasitics from Acremonium tubakii, process for their production, and use thereof” (Sanofi-Aventis Deutschland GmbH, priority 1999, dated 2006)", "key": {"[1]": {"tested_on": "Pseudomonas aeruginosa 77/2", "experiment": "minimal inhibitory concentration (MIC)", "format": "cell-based"}, "[2]": {"tested_on": "Pasteurella haemolytica 7", "experiment": "minimal inhibitory concentration (MIC)", "format": "cell-based"}, "[3]": {"tested_on": "larvae of the chicken roundworm Ascaridia galli", "experiment": "larval development test (in vitro) for anthelmintic action", "format": "cell-based", "conditions": "A. galli L2 larvae, 5 days medication", "method": "For the testing of the action of the cephaibols on helminths, an in vitro test (larval development test) was carried out with larvae of the chicken roundworm Ascaridia galli. Embryonate eggs of A. galli were surface-sterilized by treatment with 5% strength sodium hypochlorite solution and, after removal of this solution, mechanically opened by means of rotating glass beads (5 mm). The hatched L2 larvae were enriched via larval enrichment processes, taken up in nutrient medium and incubated at 41° C. and 10% CO2.\n48 hours after hatching, the larvae were incubated (41° C., 10% CO2) in microtiter plates (96 well) for 5 days with medicated medium (200 μl) in the concentrations 200, 100, 50 . . . 0.1 μg/ml. During the 5-day incubation period, motility, morphology, and vitality were checked microscopically and documented on a daily basis. After medication, the larval culture was incubated for 48 hours with Neutral Red in a concentration of 0.16%; after removal of the Neutral Red by change of medium, the enrichment of the vital dye in the intestine of the larvae was assessed as an index for active food intake and thus as proof of the vitality. The medication of the larvae with cephaibol A in the concentrations 200, 100, 50, and 25 μg/ml led to 100% mortality; at a concentration of 12.5 μg/ml and 6.25 μg/ml, the mortality was 92% and 20% respectively."}, "[4]": {"tested_on": "cat flea=Ctenocephalides felis", "experiment": "flea larval test (action on ectoparasites)", "format": "in vivo", "conditions": "depending on the dose (2000, 1000, 500, 250 ppm etc. in blood meal), in comparison with the solvent control", "method": "The action against ectoparasites was checked in the flea larval test (cat flea=Ctenocephalides felis). 5 mg of cephaibol A were dissolved in 0.5 ml of acetone and mixed into 500 mg of blood meal (defibrinated sheep blood). After the solvent had evaporated, 2 g of quartz sand were mixed with medicated blood meal such that preparation concentrations of 2000, 1000, 500, 250 ppm etc. resulted. 15 flea eggs per medicated sample or solvent control were added to the mixture of medicated blood meal and quartz sand, which was then incubated at 37° C. and high atmospheric humidity. The larval development, pupation and development to the adult stage were checked at an interval of 3–5 days and the mortality rates were documented."}, "[5]": {"tested_on": "Pseudomonas aeruginosa 1771", "experiment": "minimal inhibitory concentration (MIC)", "format": "cell-based"}, "[6]": {"tested_on": "Staphylococcus aureus 285", "experiment": "minimal inhibitory concentration (MIC)", "format": "cell-based"}, "[7]": {"tested_on": "Klebsiella aerogenes 1082 E", "experiment": "minimal inhibitory concentration (MIC)", "format": "cell-based"}, "[8]": {"tested_on": "Pseudomonas aeruginosa ATCC 27853", "experiment": "minimal inhibitory concentration (MIC)", "format": "cell-based"}, "[9]": {"tested_on": "Klebsiella oxytoca 1522 E", "experiment": "minimal inhibitory concentration (MIC)", "format": "cell-based"}, "[10]": {"tested_on": "Pasteurella haemolytica P 53", "experiment": "minimal inhibitory concentration (MIC)", "format": "cell-based"}, "[11]": {"tested_on": "Enterococcus faecalis ATCC 29212", "experiment": "minimal inhibitory concentration (MIC)", "format": "cell-based"}, "Escherichia coli DC 0": {"tested_on": "Escherichia coli DC 0", "experiment": "minimal inhibitory concentration (MIC)", "format": "cell-based"}, "Escherichia coli 1507 E": {"tested_on": "Escherichia coli 1507 E", "experiment": "minimal inhibitory concentration (MIC)", "format": "cell-based"}, "[12]": {"tested_on": "Pseudomonas aeruginosa 1771 M", "experiment": "minimal inhibitory concentration (MIC)", "format": "cell-based"}, "[13]": {"tested_on": "Pasteurella multocida 3;tox.pos.", "experiment": "minimal inhibitory concentration (MIC)", "format": "cell-based"}, "Mycoplasma gallisepticum": {"tested_on": "Mycoplasma gallisepticum", "experiment": "minimal inhibitory concentration (MIC)", "format": "cell-based"}, "[14]": {"tested_on": "Escherichia coli ATCC 25922", "experiment": "minimal inhibitory concentration (MIC)", "format": "cell-based"}, "[15]": {"tested_on": "Staphylococcus aureus ATCC 29213", "experiment": "minimal inhibitory concentration (MIC)", "format": "cell-based"}, "[16]": {"tested_on": "Bordetella bronchiseptica 9", "experiment": "minimal inhibitory concentration (MIC)", "format": "cell-based"}, "[17]": {"tested_on": "Enterobacter cloacae P 99", "experiment": "minimal inhibitory concentration (MIC)", "format": "cell-based"}, "[18]": {"tested_on": "Pasteurella multocida P 48", "experiment": "minimal inhibitory concentration (MIC)", "format": "cell-based"}, "[19]": {"tested_on": "Streptococcus pyogenes 77 A", "experiment": "minimal inhibitory concentration (MIC)", "format": "cell-based"}, "[20]": {"tested_on": "Bordetella bronchiseptica ATCC 4617", "experiment": "minimal inhibitory concentration (MIC)", "format": "cell-based"}, "[21]": {"tested_on": "Enterobacter cloacae 1321 E", "experiment": "minimal inhibitory concentration (MIC)", "format": "cell-based"}, "[22]": {"experiment": "solubility (physicochemical properties)", "from_the_text": "(§1) The physicochemical and spectroscopic properties of the cephaibols according to the invention can be summarized as follows: […]"}, "Escherichia coli TEM": {"tested_on": "Escherichia coli TEM", "experiment": "minimal inhibitory concentration (MIC)", "format": "cell-based"}, "Escherichia coli DC 2": {"tested_on": "Escherichia coli DC 2", "experiment": "minimal inhibitory concentration (MIC)", "format": "cell-based"}, "[23]": {"tested_on": "Enterococcus hirae ATCC 10541", "experiment": "minimal inhibitory concentration (MIC)", "format": "cell-based"}, "[24]": {"tested_on": "Streptococcus pyogenes 308 A", "experiment": "minimal inhibitory concentration (MIC)", "format": "cell-based"}, "[25]": {"experiment": "stability (physicochemical properties)", "conditions": "in neutral, mildly acidic and mildly alkaline medium", "from_the_text": "as §1"}, "[26]": {"tested_on": "Pseudomonas aeruginosa ATCC 9027", "experiment": "minimal inhibitory concentration (MIC)", "format": "cell-based"}, "[27]": {"tested_on": "Bordetella bronchiseptica 10", "experiment": "minimal inhibitory concentration (MIC)", "format": "cell-based"}}, "note": "Square brackets hold non-standard residues; d marks the D form. Peptide text beside a SMILES is read from it. Hyp = O=C(O)[CH]1C[CH](O)CN1; Phe(ol) = N[CH](CO)Cc1ccccc1; Iva = CC[C](C)(N)C(=O)O; Aib = CC(C)(N)C(=O)O", "data": [{"compound": "CCC(C)(NC(=O)C(CC(C)C)NC(=O)CNC(=O)C(C)(C)NC(=O)C(C)(C)NC(=O)C(C)(C)NC(=O)C(C)(C)NC(=O)C(Cc1ccccc1)NC(C)=O)C(=O)NC(C)(C)C(=O)N1CC(O)CC1C(=O)NC(CCC(N)=O)C(=O)NC(C)(CC)C(=O)N1CC(O)CC1C(=O)NC(C)(C)C(=O)N1CCCC1C(=O)NC(CO)Cc1ccccc1", "note": "(stereo not drawn) [Cephaibol A, AcPhe-Aib-Aib-Aib-Aib-Gly-Leu-Iva-Aib-Hyp-Gln-Iva-Hyp-Aib-Pro-Phe-ol] (Ac-F[Aib][Aib][Aib][Aib]GL[Iva][Aib][Hyp]Q[Iva][Hyp][Aib]P[Phe(ol)]; configuration not given here)", "values": [{"measurement": "MIC", "setting": "[1]", "result": ">128", "unit": "µg/mL"}, {"measurement": "MIC", "setting": "[2]", "result": ">128", "unit": "µg/mL"}, {"measurement": "mortality", "setting": "[3]; 6.25 μg/ml", "result": 20, "unit": "%"}, {"measurement": "mortality", "setting": "[3]; 12.5 μg/ml", "result": 92, "unit": "%"}, {"measurement": "mortality", "setting": "[3]; 25 μg/ml", "result": 100, "unit": "%"}, {"measurement": "mortality", "setting": "[3]; 50 μg/ml", "result": 100, "unit": "%"}, {"measurement": "mortality", "setting": "[3]; 100 μg/ml", "result": 100, "unit": "%"}, {"measurement": "mortality", "setting": "[3]; 200 μg/ml", "result": 100, "unit": "%"}, {"measurement": "larvicidal action", "setting": "[4]", "result": "> 90", "unit": "%"}, {"measurement": "MIC", "setting": "Mycoplasma mycoides L", "result": 64, "unit": "µg/mL"}, {"measurement": "MIC", "setting": "[5]", "result": ">128", "unit": "µg/mL"}, {"measurement": "MIC", "setting": "[6]", "result": 8, "unit": "µg/mL"}, {"measurement": "MIC", "setting": "Mycoplasma mycoides LC", "result": 128, "unit": "µg/mL"}, {"measurement": "MIC", "setting": "[7]", "result": ">128", "unit": "µg/mL"}, {"measurement": "MIC", "setting": "[8]", "result": ">128", "unit": "µg/mL"}, {"measurement": "MIC", "setting": "[9]", "result": ">128", "unit": "µg/mL"}, {"measurement": "MIC", "setting": "[10]", "result": ">128", "unit": "µg/mL"}, {"measurement": "MIC", "setting": "[11]", "result": 64, "unit": "µg/mL"}, {"measurement": "MIC", "setting": "Escherichia coli DC 0", "result": ">128", "unit": "µg/mL"}, {"measurement": "MIC", "setting": "Escherichia coli 1507 E", "result": ">128", "unit": "µg/mL"}, {"measurement": "MIC", "setting": "[12]", "result": ">128", "unit": "µg/mL"}, {"measurement": "MIC", "setting": "[13]", "result": ">128", "unit": "µg/mL"}, {"measurement": "MIC", "setting": "Mycoplasma gallisepticum", "result": 64, "unit": "µg/mL"}, {"measurement": "MIC", "setting": "[14]", "result": ">128", "unit": "µg/mL"}, {"measurement": "MIC", "setting": "[15]", "result": 16, "unit": "µg/mL"}, {"measurement": "MIC", "setting": "[16]", "result": ">128", "unit": "µg/mL"}, {"measurement": "MIC", "setting": "[17]", "result": ">128", "unit": "µg/mL"}, {"measurement": "MIC", "setting": "[18]", "result": ">128", "unit": "µg/mL"}, {"measurement": "MIC", "setting": "[19]", "result": ">128", "unit": "µg/mL"}, {"measurement": "MIC", "setting": "[20]", "result": ">128", "unit": "µg/mL"}, {"measurement": "MIC", "setting": "[21]", "result": ">128", "unit": "µg/mL"}, {"measurement": "solubility in polar organic solvents", "setting": "[22]; polar organic solvents", "result": "soluble"}, {"measurement": "solubility in water", "setting": "[22]; water", "result": "only slightly soluble"}, {"measurement": "MIC", "setting": "Escherichia coli TEM", "result": ">128", "unit": "µg/mL"}, {"measurement": "MIC", "setting": "Escherichia coli DC 2", "result": ">128", "unit": "µg/mL"}, {"measurement": "MIC", "setting": "[23]", "result": 64, "unit": "µg/mL"}, {"measurement": "MIC", "setting": "[24]", "result": 32, "unit": "µg/mL"}, {"measurement": "stability", "setting": "[25]", "result": "stable"}, {"measurement": "MIC", "setting": "[26]", "result": ">128", "unit": "µg/mL"}, {"measurement": "MIC", "setting": "[27]", "result": ">128", "unit": "µg/mL"}]}]}
